From ChEMBL document CHEMBL1201862, “PubChem BioAssay data set” (2004)
Activity calls are given as the source filed them.

Columns and labels:
[1] = nonselective StAR promoter luciferase inhibitors – cell-based, luminescence, luciferase reporter, counter-screen for LRH-1 inverse agonist project, dose response (AID 651969); type: functional
[2] = biological target: Nuclear receptor subfamily 5 group A member 2 (Homo sapiens, UniProt O00482); type: functional, cell-based;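 also: HEK293T cells transfected with LRH-1 and a StAR promoter luciferase reporter; potency for inhibitors that lower LRH-1 driven reporter light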
Steroidogenic factor 1 = Steroidogenic factor 1 (Homo sapiens, UniProt Q13285); experiment: Counterscreen for inverse agonists of the liver receptor homolog-1 (LRH-1; NR5A2): Luminescence-based cell-based high throughput dose response assay to identify inverse agonists of the Steroidogenic Factor 1 Nuclear Receptor (SF1; NR5A1).; type: functional
[3] = biological target: T1, DNA repair protein RAD52 homolog (Homo sapiens, UniProt P43351); type: functional, biochemical
T1 sequence (P43351 whole entry): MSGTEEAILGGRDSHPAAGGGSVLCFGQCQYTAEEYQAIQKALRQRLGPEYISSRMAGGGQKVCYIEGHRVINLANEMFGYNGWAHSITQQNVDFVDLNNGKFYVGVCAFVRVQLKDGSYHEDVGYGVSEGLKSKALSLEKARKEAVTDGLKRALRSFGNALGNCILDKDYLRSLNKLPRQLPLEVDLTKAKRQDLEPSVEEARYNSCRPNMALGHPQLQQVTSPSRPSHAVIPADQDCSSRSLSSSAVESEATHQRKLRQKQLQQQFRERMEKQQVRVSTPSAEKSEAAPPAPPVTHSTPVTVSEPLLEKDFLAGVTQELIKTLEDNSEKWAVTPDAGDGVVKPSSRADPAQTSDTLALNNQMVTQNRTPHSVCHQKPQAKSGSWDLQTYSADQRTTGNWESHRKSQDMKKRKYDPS

[4] = viability loss in HeLa cells – cytotoxicity control for MgcRacGAP inhibitor project, dose response (AID 624300); type: functional
[5] = biological target: T2, Rac GTPase-activating protein 1 (Homo sapiens, UniProt Q9H0H5); experiment: blockers of MgcRacGAP-driven Rac1 GTP hydrolysis – biochemical, ADP Hunter fluorescence, primary and confirmatory, confirmation (AID 624330); type: functional
T2 sequence (Q9H0H5 whole entry): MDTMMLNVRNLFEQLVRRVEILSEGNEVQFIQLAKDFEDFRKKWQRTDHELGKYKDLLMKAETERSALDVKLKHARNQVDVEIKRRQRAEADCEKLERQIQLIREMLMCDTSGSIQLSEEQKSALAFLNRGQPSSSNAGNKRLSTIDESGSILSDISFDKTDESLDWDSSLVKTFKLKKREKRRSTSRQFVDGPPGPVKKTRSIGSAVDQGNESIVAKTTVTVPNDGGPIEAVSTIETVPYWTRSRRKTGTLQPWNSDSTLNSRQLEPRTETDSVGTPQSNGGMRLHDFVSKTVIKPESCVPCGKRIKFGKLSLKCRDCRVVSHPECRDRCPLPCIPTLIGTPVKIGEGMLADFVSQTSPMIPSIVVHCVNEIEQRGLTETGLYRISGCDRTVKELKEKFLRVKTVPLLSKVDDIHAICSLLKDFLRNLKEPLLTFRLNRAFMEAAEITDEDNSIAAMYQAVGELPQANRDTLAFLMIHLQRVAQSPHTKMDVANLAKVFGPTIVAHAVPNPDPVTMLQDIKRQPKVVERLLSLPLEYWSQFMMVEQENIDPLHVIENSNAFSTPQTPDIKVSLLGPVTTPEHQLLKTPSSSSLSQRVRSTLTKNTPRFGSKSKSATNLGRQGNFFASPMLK

[6] = alpha-synuclein stem-loop luciferase translation blockers – H4 neuroglioma cells, luminescence, confirmation (AID 1988); type: functional, cell-based
[7] = Luminescence Cell-Based Dose Response HTS to Identify Inhibitors of 5'UTR Stem-Loop Driven Prion Protein mRNA Translation in H4 Neuroglioblastoma Cells. [Related pubchem assays: 1827 (Project Summary), 1813 (Primary HTS)]; type: functional
[8] = luciferase reporter signal suppression in cells – H4 neuroglioma cells, luminescence, dose response (AID 1990); type: functional, cell-based
[9] = activation of miR-122 Renilla sensor silencing – cell-based, Huh7 psiCHECK-miR122, Renilla luciferase, cherry-picked, dose response (AID 651956); type: functional;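 also: huh7 hepatoma cells stably carrying a psiCHECK-2 miR-122 sensor plasmid; renilla luciferase signal reporting endogenous miR-122 activity after 48 h compound exposure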
[10] = general mammalian cell viability loss – inhibitor set, cherry-pick, set 2, cytotoxicity control for miR-122 modulator project, dose response (AID 720697); type: functional, cell-based
cells [11] = type: functional, cell-based
[12] = biological target: T3, Heat shock factor protein 1 (Mus musculus, UniProt P38532); experiment: enhancement of HSF1-driven luciferase signal – cell-based, NIH3T3, luminescence, dose retest, confirmation (AID 435004); type: functional;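 also: stress induced by proteasome inhibitor MG132 added 30 min after compound; luciferase reporter driven by HSF1 response element in NIH3T3 cells; actives raise luminescence as potentiators of the MG132 stress response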
T3 sequence (P38532 whole entry): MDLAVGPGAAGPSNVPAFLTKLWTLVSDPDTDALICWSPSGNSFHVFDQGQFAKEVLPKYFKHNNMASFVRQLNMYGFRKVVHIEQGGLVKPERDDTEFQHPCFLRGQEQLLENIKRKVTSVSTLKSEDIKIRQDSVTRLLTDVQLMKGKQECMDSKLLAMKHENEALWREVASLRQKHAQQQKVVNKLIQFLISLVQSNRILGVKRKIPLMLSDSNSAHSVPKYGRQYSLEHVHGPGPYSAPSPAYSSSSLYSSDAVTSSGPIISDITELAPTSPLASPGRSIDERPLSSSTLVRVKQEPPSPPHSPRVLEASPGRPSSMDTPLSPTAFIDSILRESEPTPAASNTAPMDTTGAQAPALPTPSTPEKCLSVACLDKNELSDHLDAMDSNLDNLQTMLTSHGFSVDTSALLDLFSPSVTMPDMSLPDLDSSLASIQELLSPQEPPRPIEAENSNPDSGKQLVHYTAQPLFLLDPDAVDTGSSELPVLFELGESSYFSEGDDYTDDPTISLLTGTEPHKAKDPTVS

cells [13] = type: functional, cell-based; remark: listed apart in the source
CAAX prenyl protease 2 [14] = biological target: T4, CAAX prenyl protease 2 (Saccharomyces cerevisiae S288c, UniProt Q03530); type: biochemical
T4 sequence (Q03530 whole entry): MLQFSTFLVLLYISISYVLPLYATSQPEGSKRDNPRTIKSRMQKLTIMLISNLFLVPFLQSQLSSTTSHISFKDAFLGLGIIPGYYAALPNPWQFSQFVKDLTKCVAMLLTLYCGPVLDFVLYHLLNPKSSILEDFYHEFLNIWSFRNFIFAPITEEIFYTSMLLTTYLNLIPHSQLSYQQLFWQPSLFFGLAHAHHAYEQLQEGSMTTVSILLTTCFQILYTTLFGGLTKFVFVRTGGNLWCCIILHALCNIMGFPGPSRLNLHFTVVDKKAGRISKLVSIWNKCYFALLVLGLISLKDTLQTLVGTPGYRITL

[15] = loss of viability in HepG2 cells – cell-based, CellTiter-Glo, cherry-picked, cytotoxicity control for Shn3 inhibitor project, dose response (AID 624134); type: functional
Paired box protein Pax-8 = Paired box protein Pax-8 (Homo sapiens, UniProt Q06710); experiment: PAX8 transcriptional activity inhibition in RMG-I – RMG-I cells, luciferase, cherry-pick, dose response (AID 687027); type: functional, cell-based;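 also: luciferase reporter driven by Pax8 target thyroperoxidase promoter measured by SteadyGlo luminescence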
CAAX prenyl protease 2 [16] = biological target: T5, CAAX prenyl protease 2 (Homo sapiens, UniProt Q9Y256); experiment: inhibition of Ras-converting CAAX protease Rce1 – biochemical, yeast membranes, quenched-peptide fluorescence, cherry-pick, dose response (AID 588849)
T5 sequence (Q9Y256 whole entry): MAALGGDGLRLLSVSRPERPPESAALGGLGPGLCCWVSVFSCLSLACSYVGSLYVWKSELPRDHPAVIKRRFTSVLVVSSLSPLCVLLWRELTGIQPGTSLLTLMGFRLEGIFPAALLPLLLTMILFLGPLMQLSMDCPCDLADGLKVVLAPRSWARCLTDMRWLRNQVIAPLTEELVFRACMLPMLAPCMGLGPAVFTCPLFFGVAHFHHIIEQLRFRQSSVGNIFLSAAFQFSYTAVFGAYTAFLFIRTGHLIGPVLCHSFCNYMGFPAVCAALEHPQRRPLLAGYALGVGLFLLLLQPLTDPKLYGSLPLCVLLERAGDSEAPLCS

[17] = Trypanosoma cruzi growth suppression in host cells – NIH3T3 host cells, beta-gal luminescence, confirmation (AID 2044); type: functional, cell-based;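 also: intracellular parasites grown in NIH/3T3 mouse fibroblasts as host cells; luminescent beta-galactosidase reporter signal from transgenic T. cruzi replicating inside host cells; inhibitors lower the luminescence signal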
INS1 = experiment: INS-1E survival protection against cytokine death – cell-based, luminescence, retest, dose response (AID 449756); type: functional; conditions: Rattus norvegicus;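 also: cell death triggered by IL-1 beta plus TNF-alpha plus IFN-gamma mixture; protective hits raise ATP signal compared with cytokine alone wells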
[18] = reduction of Shn3 3'UTR-driven luciferase in osteoblasts – cell-based, Clone20 osteoblasts, firefly luciferase, cherry-picked, dose response (AID 624132); type: functional;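 also: firefly luciferase luminescence from reporter carrying the Shn3 3'UTR in osteoblasts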
[19] = non-specific 3'UTR reporter inhibition in Clone20-Shn3RL – cell-based, Renilla luciferase, cherry-picked, counter-screen for Shn3 inhibitor project, dose response (AID 624133); type: functional
[20] = NIH3T3 cell viability loss – ATP luminescence, mouse fibroblasts, counter-screen, dose response (AID 2010); type: functional, cell-based;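 also: cells exposed to compound for about 90 hours before reading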
[21] = biological target: T6, DNA repair and recombination protein RAD54-like (Homo sapiens, UniProt Q92698); experiment: RAD54 Holliday junction migration blockers – biochemical, fluorescence, cherry-picked samples, dose series, confirmation (AID 651657); type: functional
T6 sequence (Q92698 whole entry): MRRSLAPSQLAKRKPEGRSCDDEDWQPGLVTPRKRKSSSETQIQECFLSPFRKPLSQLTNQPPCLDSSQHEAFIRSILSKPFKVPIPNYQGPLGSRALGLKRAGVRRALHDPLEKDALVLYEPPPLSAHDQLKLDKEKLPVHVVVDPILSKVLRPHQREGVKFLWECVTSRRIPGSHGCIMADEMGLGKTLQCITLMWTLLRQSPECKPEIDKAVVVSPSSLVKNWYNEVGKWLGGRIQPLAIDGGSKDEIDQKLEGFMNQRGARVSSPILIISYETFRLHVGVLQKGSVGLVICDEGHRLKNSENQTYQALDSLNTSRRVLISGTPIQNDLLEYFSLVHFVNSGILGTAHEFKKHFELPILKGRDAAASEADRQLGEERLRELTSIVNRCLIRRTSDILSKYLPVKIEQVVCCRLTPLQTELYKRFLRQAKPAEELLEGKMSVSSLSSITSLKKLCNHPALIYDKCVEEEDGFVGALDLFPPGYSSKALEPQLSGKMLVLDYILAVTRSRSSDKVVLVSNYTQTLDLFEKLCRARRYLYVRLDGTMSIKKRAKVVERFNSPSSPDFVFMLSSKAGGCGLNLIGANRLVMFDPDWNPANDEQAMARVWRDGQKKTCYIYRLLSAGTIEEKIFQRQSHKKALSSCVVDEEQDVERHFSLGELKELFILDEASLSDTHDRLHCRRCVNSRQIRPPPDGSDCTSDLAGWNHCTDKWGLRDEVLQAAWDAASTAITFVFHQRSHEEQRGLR

[22] = A2780 cell killing – plate reader, dry powder samples, cytotoxicity control, dose response (AID 743046); type: functional, cell-based

Chain of Steroidogenic factor 1 (Q13285 whole entry): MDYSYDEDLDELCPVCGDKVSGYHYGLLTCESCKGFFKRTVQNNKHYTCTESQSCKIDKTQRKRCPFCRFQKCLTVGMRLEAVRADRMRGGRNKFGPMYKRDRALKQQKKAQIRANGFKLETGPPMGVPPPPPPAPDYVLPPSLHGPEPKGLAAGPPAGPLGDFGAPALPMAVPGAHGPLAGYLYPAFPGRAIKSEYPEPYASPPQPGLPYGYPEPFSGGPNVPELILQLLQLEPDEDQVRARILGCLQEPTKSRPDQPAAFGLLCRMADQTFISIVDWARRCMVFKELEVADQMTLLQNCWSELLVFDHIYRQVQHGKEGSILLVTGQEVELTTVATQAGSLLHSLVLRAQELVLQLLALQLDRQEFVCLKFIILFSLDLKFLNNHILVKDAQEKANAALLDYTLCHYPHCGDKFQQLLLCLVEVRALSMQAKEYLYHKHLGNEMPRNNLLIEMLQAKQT
Chain of Nuclear receptor subfamily 5 group A member 2 (O00482 whole entry): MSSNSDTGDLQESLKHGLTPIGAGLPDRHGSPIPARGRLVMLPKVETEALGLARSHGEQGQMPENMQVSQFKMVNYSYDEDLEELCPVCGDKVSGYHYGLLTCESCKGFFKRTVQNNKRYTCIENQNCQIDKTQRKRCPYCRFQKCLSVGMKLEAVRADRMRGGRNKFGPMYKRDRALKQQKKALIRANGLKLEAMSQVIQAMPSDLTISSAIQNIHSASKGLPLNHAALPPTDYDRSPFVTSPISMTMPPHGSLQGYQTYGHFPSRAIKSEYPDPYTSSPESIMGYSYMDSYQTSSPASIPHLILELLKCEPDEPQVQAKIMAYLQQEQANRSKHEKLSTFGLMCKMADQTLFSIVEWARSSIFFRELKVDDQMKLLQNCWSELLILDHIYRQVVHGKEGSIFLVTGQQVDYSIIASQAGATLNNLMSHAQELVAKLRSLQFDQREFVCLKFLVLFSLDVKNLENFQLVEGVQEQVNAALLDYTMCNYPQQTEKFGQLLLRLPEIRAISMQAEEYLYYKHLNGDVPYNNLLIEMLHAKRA
Chain of Paired box protein Pax-8 (Q06710 whole entry): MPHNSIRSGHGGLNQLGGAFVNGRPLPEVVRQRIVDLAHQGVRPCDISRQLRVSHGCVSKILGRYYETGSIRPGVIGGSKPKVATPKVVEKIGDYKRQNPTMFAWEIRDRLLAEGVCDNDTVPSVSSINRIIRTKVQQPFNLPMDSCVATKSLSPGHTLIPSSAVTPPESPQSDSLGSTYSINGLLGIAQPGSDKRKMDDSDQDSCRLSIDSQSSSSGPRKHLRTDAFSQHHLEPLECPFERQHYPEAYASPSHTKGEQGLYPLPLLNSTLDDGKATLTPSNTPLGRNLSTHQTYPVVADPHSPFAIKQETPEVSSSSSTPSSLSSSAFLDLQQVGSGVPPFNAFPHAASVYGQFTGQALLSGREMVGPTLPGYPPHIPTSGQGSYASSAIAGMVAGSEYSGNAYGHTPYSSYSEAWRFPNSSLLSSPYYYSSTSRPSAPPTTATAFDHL

## Cn1cc(Cl)c(C(=O)OCC(=O)Nc2ccc(S(N)(=O)=O)cc2)n1
[1]
  IC50: 35.9 µM (inactive)
[2]
  IC50: 0.45 µM (active)
Steroidogenic factor 1
  IC50: 1.11 µM (active)

## COc1ccc(OCC(O)CN2CCC(CN3C(=O)c4cccc5cccc(c45)C3=O)CC2)cc1 (configuration not stated)
[3]
  AC50: 8.15 µM (active)

## CCOc1ccc(NC(=O)CSc2nccn(-c3ccc4c(c3)OCCO4)c2=O)cc1
[1]
  IC50: 35.9 µM (inactive)
[2]
  IC50: 2.49 µM (active)
Steroidogenic factor 1
  IC50: 2.46 µM (active)

## Cc1cc(-c2ccccc2)nc(N/N=C/c2ccc(O)cc2)n1
[4]
  CC50: 87 µM (active)
[5]
  IC50: 18.2 µM (active)

## CCn1c(=O)n(CC)c2cc(N3CCCC3)c(NC(=O)c3cccc(Cl)c3)cc21
[4]
  CC50: 100 µM (active)

## COc1ccc(C(O)(CC(C)C)C(CN2CCOCC2)c2ccccc2)cc1 (configuration not stated)
[6]
  EC50: 10.2 µM (active)
[7]
  EC50: > 120 µM (not active)
[8]
  EC50: 10.6 µM (active)
[9]
  AC50: 49 µM (active)
[10]
  AC50: 4.58 µM (active)

## O=C1CCCN2N=C(SCC(=O)Nc3ccc(Br)cc3)SC2=N1
[1]
  IC50: 35.9 µM (inactive)
Cells [11]
  EC50: > 350 µM (not active)
[2]
  IC50: 71.6 µM (inactive)
[12]
  EC50: > 260 µM (inactive)
Steroidogenic factor 1
  IC50: 12 µM (inactive)
Cells [13]
  EC50: > 350 µM (not active)

## C[n+]1c2n(c3ccccc31)N=C(c1cc(C(C)(C)C)c(O)c(C(C)(C)C)c1)CS2
CAAX prenyl protease 2 [14]
  AC50: 9.21 µM (active)
[15]
  AC50: 13 µM (active)
Paired box protein Pax-8
  AC50: 0.906 µM (active)
CAAX prenyl protease 2 [16]
  AC50: > 100 µM (inactive)
[3]
  AC50: 13.4 µM (active)
[17]
  EC50: 0.496 µM (active)
INS1
  AC50: 0.452 µM (active)
[18]
  AC50: 5.92 µM (active)
[19]
  AC50: 7.16 µM (active)
[20]
  EC50: > 60 µM (not active)

## CCN(CC)CC(=O)Nc1cc(N(C)C)nc2ccccc12
[21]
  AC50: 26.9 µM (active)

## CCN1CCN(c2nc(Nc3ccc(NC(C)=O)cc3)nc(Nc3ccc(NC(C)=O)cc3)n2)CC1
[3]
  AC50: 6.27 µM (active)

## C[C@@H]1CN([C@H](C)CO)C(=O)c2cc(-c3cncnc3)cnc2O[C@H]1CN(C)Cc1ccc(Oc2ccccc2)cc1
[9]
  AC50: 25.7 µM (active)

## Cc1ccc2c(c1)c1nc3ccccc3nc1n2CCN1CCOCC1
[21]
  AC50: 16.6 µM (active)

## CC(C)N(CCNCC(O)COc1ccc(C(C)(C)c2ccccc2)cc1)C(C)C (configuration not stated)
[4]
  CC50: 91.8 µM (active)
[5]
  IC50: 204 µM (active)

## OCCN1CCN(c2ncnc3sc(-c4ccccc4)cc23)CC1
[17]
  EC50: 0.721 µM (active)
[21]
  AC50: 24.8 µM (active)
[20]
  EC50: > 60 µM (not active)

## Cc1noc(C)c1S(=O)(=O)Nc1ccc2c(c1)C(=O)N([C@@H](C)CO)C[C@H](C)[C@H](CN(C)C(=O)Nc1ccc(C(F)(F)F)cc1)OCCCC[C@H](C)O2
Paired box protein Pax-8
  AC50: 14.2 µM (active)
[22]
  AC50: 4.83 µM (active)
